Test [1] addresses Cysteinyl leukotriene receptor 1 (Cavia porcellus). As to the kind of experiment: In vitro for antagonistic activity against LTD4 receptor in guinea pig ileum.
In test [2] the test system is Cavia porcellus. Nature of the test: Compound was evaluated in vivo for LTD4-induced bronchospasm in guinea pig. The test is classed as functional.
In test [3] the target is T1, Cysteinyl leukotriene receptor 1 (Cavia porcellus, UniProt Q2NNR5).
T1 sequence (Q2NNR5 whole entry): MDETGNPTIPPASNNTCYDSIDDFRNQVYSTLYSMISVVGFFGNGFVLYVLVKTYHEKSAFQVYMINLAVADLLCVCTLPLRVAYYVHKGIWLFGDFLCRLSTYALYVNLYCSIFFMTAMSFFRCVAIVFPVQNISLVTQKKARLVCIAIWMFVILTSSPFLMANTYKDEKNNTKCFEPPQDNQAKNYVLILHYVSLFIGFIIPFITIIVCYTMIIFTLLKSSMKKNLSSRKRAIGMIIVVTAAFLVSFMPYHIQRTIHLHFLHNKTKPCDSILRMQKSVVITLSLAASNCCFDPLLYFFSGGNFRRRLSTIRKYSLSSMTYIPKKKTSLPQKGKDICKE
Nature of the test: In vitro inhibition of [3H]LTD4 binding to guinea pig lung membrane. The format is tissue-based.

Test [4] has as its target T2, Cysteinyl leukotriene receptor 1 (Cavia porcellus) (UniProt Q2NNR5).
T2 sequence (whole entry): T1 sequence (Q2NNR5 whole entry)
As to the kind of experiment: In vitro antagonistic activity against LTD4 in guinea pig ileum at 240 nM. The test is classed as functional, tissue-based.

Test [5] concerns Cavia porcellus. As to the kind of experiment: Compound was evaluated in vivo for LTD4-induced bronchospasm in guinea pig; IA means inactive at 10 mg/kg p.o. The test is classed as functional, organism-based. Details: dose 10 mg/kg.
Test [6] concerns the target T2, Cysteinyl leukotriene receptor 1 (Cavia porcellus). Nature of the test: In vitro antagonistic activity against LTD4 in guinea pig ileum at 200 nM. The test is classed as functional, tissue-based.

SMILES strings stand for the structures. The source made the active and inactive calls. The rule behind the calls is not given here.

Consider 30 molecules from ChEMBL document CHEMBL1130795, “Synthesis and SAR of a novel, potent and structurally simple LTD4 antagonist of the quinoline class” (Bioorg Med Chem Lett, 1998).

`O=C(O)CCC(=O)Nc1cccc(OCc2ccc3ccc(F)cc3n2)c1` displayed an IC50 in test [1] of 200 nM.

In the case of `CCCC(CCC)(CC(=O)Nc1cccc(OCc2ccc3ccc(F)cc3n2)c1)C(=O)O`, the IC50 in test [1] was found to be 2 nM.

In test [1], `CCC(CC)(CC(=O)Nc1cccc(OCc2ccc3ccc(C(C)=O)cc3n2)c1)C(=O)O` displayed a 50% inhibitory concentration (IC50) of 2500 nM.

`CCC(CC)(CC(=O)Nc1cccc(OCc2ccc3ccc(C)cc3n2)c1)C(=O)O` gave an IC50 in test [1] of 11 nM.

Molecule `CCC(CC)(CC(=O)Nc1cccc(OCc2ccc3ccc(OC(F)(F)F)cc3n2)c1)C(=O)O` displayed an IC50 in test [1] of 9 nM.

With `CCC(CC)(CC(=O)Nc1cccc(OCc2ccc3ccc(OC)cc3n2)c1)C(=O)O`, the IC50 in test [1] amounted to 80 nM.

In the case of `CCC(CC)(CC(=O)Nc1cccc(OCc2ccc3ccc(Cl)cc3n2)c1)C(=O)O`, the figures for the IC50 in test [1] and in test [3] were 0.8 nM and 64 nM, respectively. The same molecule returned an ED50 with Cavia porcellus [2] of 0.11 mg/kg.

As for `CCC(CC)(CC(=O)Nc1cccc(OCc2ccc3ccc(O)cc3n2)c1)C(=O)O`, the inhibition in test [4] is 0%.

The molecule `O=C(CC1(C(=O)O)CCCC1)Nc1cccc(OCc2ccc3ccc(F)cc3n2)c1` gave an IC50 in test [1] of 10 nM.

As to `O=C(CC1(C(=O)O)CCCCC1)Nc1cccc(OCc2ccc3ccc(F)cc3n2)c1`, the IC50 in test [1] worked out at 7.3 nM.

In turn, `CCCCC(CCCC)(CC(=O)Nc1cccc(OCc2ccc3ccc(F)cc3n2)c1)C(=O)O` gave an IC50 in test [1] of 1 nM.

As to `CCC(CC)(CC(=O)Nc1cccc(OCc2ccc3ccc(F)cc3n2)c1)C(=O)O`, the IC50 worked out at 0.2 nM in test [1] and 6 nM in test [3]. Moreover, in the test on Cavia porcellus [2], the ED50 was found to be 0.07 mg/kg.

In turn, `CCC(C)(CC(=O)Nc1cccc(OCc2ccc3ccc(F)cc3n2)c1)C(=O)O` (configuration not stated) returned an IC50 in test [1] of 6.4 nM.

In the case of `CCC(CC)(CC(=O)Nc1cccc(OCc2ccc3cccc(F)c3n2)c1)C(=O)O`, in test [1], the IC50 was found to be 6 nM.

For `CCC(CC)(CC(=O)Nc1cccc(/C=C/c2ccc3ccc(F)cc3n2)c1)C(=O)O`, the IC50 in test [1] came to 0.4 nM.

`CCC(CC)(CC(=O)Nc1cccc(SCc2ccc3ccc(F)cc3n2)c1)C(=O)O` showed an IC50 in test [1] of 4 nM.

Consider `CCC(CC)(CC(=O)Nc1cccc(OCc2ccc3cc(F)c(F)cc3n2)c1)C(=O)O`, for which the IC50 in test [1] worked out at 0.5 nM.

In turn, `CC(C)(CC(=O)Nc1cccc(OCc2ccc3ccc(F)cc3n2)c1)C(=O)O` returned an IC50 in test [1] of 1.4 nM.

As to `CCC(CC)(CC(=O)Nc1cccc(OCc2ccc3cc(F)ccc3n2)c1)C(=O)O`, the IC50 in test [1] is on record as 2 nM. The IC50 values of the last two molecules are within 1.5-fold of each other.

In test [1], `CCC(CC)(CC(=O)Nc1cccc(OCc2ccc3ccc(Br)cc3n2)c1)C(=O)O` returned an IC50 of 4 nM.

Regarding `CCC(CC)(CC(=O)Nc1cccc(OCc2ccc3ccccc3n2)c1)C(=O)O`, the IC50 in test [1] was 0.9 nM; in test [3], 9 nM. In addition, the ED50 with Cavia porcellus [2] turned out to be 0.42 mg/kg.

As for `CCC(CC)(CC(=O)Nc1cccc(OCc2ccc3cc(C)c(C)cc3n2)c1)C(=O)O`, in test [1], the IC50 is 11 nM. This lies in the double-digit nanomolar range.

Consider `CCC(CC)(CC(=O)O)C(=O)Nc1cccc(OCc2ccc3ccc(F)cc3n2)c1`, for which the IC50 in test [1] is 140 nM.

For `CCC(CC)(CC(=O)Nc1cccc(OCc2ccc3ccc(C(F)(F)F)cc3n2)c1)C(=O)O`, the IC50 in test [1] amounted to 3 nM. For the same molecule, the ED50 entry with Cavia porcellus [5] was “inactive”.

Molecule `CCC(CC)(CC(=O)Nc1cccc(OCc2ccc3cc4c(cc3n2)CCC4)c1)C(=O)O` came in with an IC50 in test [1] of 9 nM. In other words, the single-digit nanomolar range.

For `CCC(CC)(CC(=O)Nc1cccc(OCc2ccc3c(F)cccc3n2)c1)C(=O)O`, in test [1], the IC50 amounted to 0.3 nM.

In the test on Cavia porcellus [2], `COc1cc(C(=O)NS(=O)(=O)c2ccccc2C)ccc1Cc1cn(C)c2ccc(NC(=O)OC3CCCC3)cc12` [ZAFIRLUKAST] had an ED50 of 0.55 mg/kg.

As to `CCC(CC)(CC(=O)Nc1cccc(OCc2ccc3cc(C)ccc3n2)c1)C(=O)O`, in test [1], the IC50 is on record as 24 nM.

Turning to `CCC(CC)(CC(=O)Nc1cccc(OCc2ccc3ccc(OCc4ccccc4)cc3n2)c1)C(=O)O`, the inhibition in test [6] came out at 0%.

`CCC(CC)(CC(=O)Nc1cccc(COc2ccc3ccccc3n2)c1)C(=O)O` gave an IC50 in test [1] of 3900 nM.
